Measurements: patent US20110319338A1, “PEPTIDES THAT BIND EUKARYOTIC TRANSLATION INITIATION FACTOR 4E” (The Board of Regents of the University of Texas System, priority 2008, published 2011)
Square brackets hold non-standard residues; d marks the D form. Ends that are not written are not given here.

Experiments:
ES-2-DualLuc cells = assay: Cell-based translation assay with bicistronic R-Luc/F-Luc reporter; conditions: peptide 6 hours, 0.3 to 10 micromoles per liter, relative to cells without peptide
Protocol: FIGS. 2A-2F. Inhibition of cap-dependent translation and cell growth by TAT-4EBP fusion peptides. (FIG. 2A) Representation of the pIRES-DualLuc bicistronic construct containing Renilla Luciferase (R-Luc) and firefly luciferase (F-Luc) genes. In (FIG. 2B), R-Luc and F-Luc activities were assayed in ES-2-DualLuc cells following treatment for 24 hours with rapamycin and for 3 hours with cycloheximide with the indicated concentrations of these drugs, and expressed relative to the respective luciferase activities in cells incubated without drug. Cell viability was not affected by rapamycin and cycloheximide under these conditions. In (FIG. 2C), R-Luc and F-Luc activities were assayed in ES-2-DualLuc cells following treatment for 6 hours with the indicated concentrations of peptides, and expressed relative to the respective luciferase activities in cells incubated without peptide. Shown are results of triplicate assays performed independently two times, and the statistical significance of differences in relative R-Luc and F-Luc activities in cells treated with peptide at a concentration of 10 micromoles per liter. (FIG. 2D) Viability of OVCAR-3 cells at 3 days after addition of the indicated concentrations of peptides, expressed relative to viability of cells incubated without peptide. Shown are results of triplicate assays performed in two independent experiments, and statistical significances of differences in viability of cells treated with TAT-4EBP1-WT vs. TAT-4EBP1-MT, and of cells treated with TAT-4EBP2-WT vs. TAT-4EBP2-MT at a concentration of 10 micromoles per liter. (FIG. 2E) OVCAR-3 cells at 3 days after peptide addition (10 micromoles per liter) viewed under phase-contrast microscopy. (FIG. 2F) Flow cytometric analysis of staining of terminal deoxynucleotidyl transferase-mediated dUTP nick end labeling (TUNEL) in OVCAR-3 cells at 3 days after peptide addition (10 micromoles per liter). Cells incubated for 3 days in the absence of peptide in medium with and without serum are included as controls.
FIGS. 3A-3H. Uptake, binding and inhibitory effects of [DLys6]GnRH-4EBP fusion peptides. (FIG. 3A) Sequences of [DLys6]GnRH, and wild-type and mutant 4EBP1 peptides fused to the agonist. (FIG. 3B) Western blot of GnRH-RI levels in OVCAR-3, ES-2, MDA-MB-231, BJ, HUVEC and SKOV3 cells. (FIG. 3C) Detection of biotinylated peptides in OVCAR-3 and SKOV3 by Texas Red-conjugated streptavidin at 16 hours after peptide addition (3 micromoles per liter). In (FIGS. 3D and 3E), biotinylated peptides were incubated with OVCAR-3 cell lysate as described in FIG. 1. In (FIG. 3D), peptide was pulled down using streptavidin-agarose. Precipitates (P) and supernatants (S) were analyzed by Western blot using eIF4E antibody. In (FIG. 3E), immunoprecipitation was performed using eIF4E antibody, and Western blot performed using eIF4G antibody. (FIG. 3F) R-Luc and F-Luc activities were assayed in ES-2-DualLuc cells at 6 hours after addition of the indicated concentrations of peptides, and are expressed relative to the respective luciferase activities in cells incubated without peptide. Shown are results of triplicate assays performed independently two times, and the statistical significance of differences in relative R-Luc and F-Luc activities in cells treated with peptide at a concentration of 10 micromoles per liter (FIG. 3G) Cells of GnRH-RI-positive and -negative lines were treated with the indicated concentrations of peptides. Viability at 3 days after peptide addition is expressed relative to viability of cells incubated with no peptide. Shown are results of triplicate assays performed in two independent experiments, and statistical significances of differences in viability of cells treated with wild-type vs. mutant [DLys6]GnRH-4EBP1 peptides at a concentration of 10 micromoles per liter. (FIG. 3H) ES-2 and parental SKOV3 cells at 3 days after peptide addition (30 micromoles per liter) viewed under phase-contrast microscopy. […]

[1] = molecular target: T1, binding of eIF4E to eIF4G in SKOV3+GnRH-RI cells (Homo sapiens, UniProt P06730); assay: eIF4E immunoprecipitation / eIF4G Western blot of lysates of peptide-treated cells; format: cell-based; conditions: 10 micromoles per liter, 24 hours
T1 construct: endogenous in cells; host or cells: SKOV3+GnRH-RI cells
T1 sequence (P06730 2-217 limits assumed): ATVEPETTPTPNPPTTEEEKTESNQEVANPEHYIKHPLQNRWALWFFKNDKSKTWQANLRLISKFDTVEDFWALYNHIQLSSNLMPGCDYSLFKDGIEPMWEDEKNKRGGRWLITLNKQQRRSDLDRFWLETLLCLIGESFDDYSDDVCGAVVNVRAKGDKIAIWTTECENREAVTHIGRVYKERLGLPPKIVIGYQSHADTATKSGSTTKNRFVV
Protocol: FIGS. 8A-8D. Effect of [DLys6] GnRH-4EBP1 peptide in SKOV3 cells stably expressing GnRH-RI. (FIG. 8A) Western blot analysis of GnRH-RI in parental SKOV3 cells and SKOV3 cells transfected with GnRH-RI. In (FIG. 8B), SKOV3+GnRH-RI cells were treated with biotinylated peptides at a final concentration of 10 micromoles per liter or incubated without peptide. At 24 hours after treatment, lysates were prepared from cells. Peptide was pulled-down using streptavidin-agarose. Precipitates and supernatants were analyzed by Western blot using eIF4E antibody. (FIG. 8C) parental SKOV3, SKOV3+GnRH-RI and ES-2 cells were treated with the indicated peptides (10 micromoles per liter) or incubated without peptide. At 24 hours after treatment, lysates were prepared from cells. Immunoprecipitation was performed using eIF4E antibody, and Western blot of precipitates was performed using eIF4G antibody. Western blot of whole cell lysates of treated cells was performed using antibodies to eIF4G, eIF4E and actin. (FIG. 8D) TUNEL-staining of parental SKOV3 and SKOV3+GnRH-RI cells at 3 days following treatment with peptide at a final concentration of 30 micromoles per liter.
Immunoprecipitation (IP) and Western blotting. Biotinylated peptides were incubated with 250 micrograms of cell lysate at a final concentration of 3 micromoles per liter for 6 hours at 4° C. […]

## [DLys6]GnRH: GnRH agonist with a D-amino acid substitution at position 6; GnRH-RI-targeting moiety (QHWSY[dK]LRPG; not fully specified (residue 1, C-terminus); ends and bridges not checked)
ES-2-DualLuc cells
  cap-dependent translation (R-Luc read-out): not inhibited
[1]
  binding of eIF4E to eIF4G in treated cells: not inhibited
